Key:
PC-3 cells [1] = experiment: Cell viability of PC-3 cells after 24 h (Figure S1); assay type: cell-based, human
Protocol: Figure S1. Cell viability of PC-3 cell treated with various concentrations of tryptamine […]
Figure S2. Liver function test results and effects of tryptamine and 3-HAA treatments on the tumor growth of PC-3 xenograft mouse model. (A and B) Appearance and aspartate aminotransferase (AST, U/L) value of the liver of PC-3 xenograft mice received intraperitoneal administration of tryptamine (80 mg/kg, n = 6) and intratumoral administration of tryptamine (1 mg/100 mm3, n = 5), respectively. Size of the tumors of PC-3 xenograft mice received intratumoral administration of (C and E) tryptamine (1 mg/100 mm3) and 3-HAA (200 mg/kg) and intraperitoneal administration of (D and F) tryptamine (80 mg/kg) and 3-HAA (200 mg/kg), respectively.
Figure S3. Heatmap overview of altered PC-3 cell metabolic profiles in LC-MS (A) positive and (B) negative ion modes before and after tryptamine treatment.
Figure S4. MS/MS analyses of the discriminant metabolites in panels.
Figure S1. Cell viability of PC-3 cell treated with various concentrations of tryptamine for 24h. […]

A549 cells = experiment: Transwell migration assay, A549; assay type: cell-based; conditions: 24 h
Protocol: (§1) Cell migration was evaluated using 8-μm transwell filters (Costar Corning, Schiphol-Rijk, The Netherlands). Cells at a density of 5 × 10^4 were seeded to the upper chamber, and the chamber was filled with FBS-free medium. Cells were incubated overnight to allow for adherence; then, the lower chamber was replaced with 10% FBS medium as a chemo-attractant. Following a 24 h incubation, non-migrating cells on the upper surface of the insert membrane were gently removed by cotton swabs and migrated cells on the lower surface of the insert membrane were fixed by 4% paraformaldehyde and stained with 0.1% crystal violet for 20 min. Migrated cells on each membrane were photographed and counted at 100× magnification field at six random fields.

HepG2 cells [2] = experiment: Transwell migration assay, HepG2; assay type: cell-based; conditions: 24 h
Protocol: as §1

[3] = system: cleaved caspase-3 in PC-3 cells; experiment: Cleaved caspase-3 expression by immunofluorescent staining and Western blot; assay type: cell-based, human; conditions: PC-3, 0.3 mM
Protocol: After treatment with various doses of tryptamine, PC-3 cells were lysed with RIPA lysis buffer (Beyotime, Shanghai, China) containing 1 mM PMSF, and the total protein concentration was determined by BCA Protein Assay Kit (Solarbio, Beijing, China). Samples were electrophoresed on a 10% sodium dodecylsulfate (SDS) polyacrylamide gel and electrotransferred onto polyvinylidene difluoride (PVDF) membrane (Beyotime, China). After blocking with 5% BSA for 1 h, the membrane was incubated with the primary antibodies rabbit anti-cleaved caspase-3 (1:1000, ab32042, Abcam) and anti-β-actin (1:1000, 4967S, Cell Signaling Technology, Boston, MA, USA) at 4 °C overnight, followed by incubation with horseradish peroxidase (HRP)-conjugated goat anti-rabbit secondary antibody (1:2000, 7074S, Cell Signaling Technology) for 1 h at 37 °C. After washing with TBST, the bands were visualized by the enhanced chemiluminescence kit (Thermo Fisher Scientific, Carlsbad, CA, USA) and Odyssey® imaging system (LI-COR, Lincoln, NE, USA) according to the manufacturers’ instructions.
PC-3 cells (5 × 10^4 cells/well) were seeded in a 24-well chamber with a coverslip and incubated overnight. […] Fluorescence images were acquired with a laser scanning confocal microscope (LSCM, Leica, TCS SP8 MP, Heidelberg, Germany).

PC-3 cells [4] = experiment: MTT cell proliferation assay, PC-3; assay type: cell-based, human; conditions: Homo sapiens, PC-3, 48 h treatment in FBS-free medium, read-out: IC50 Value (Mean ± SD mM) PC-3
Protocol: (§2) PC-3, LNCaP, RWPE-1, HepG2, A549, and PANC-1 cells were purchased from the National Collection of Authenticated Cell Cultures (Shanghai, China). […] All the above cell cultures were supplied with 10% fetal bovine serum and 1% penicillin-streptomycin. RWPE-1 cells were cultured in keratinocyte serum-free medium (K-SFM, Gibco, New York, NY, USA) supplemented with 50 mg/L bovine pituitary extract and 5 μg/L epidermal growth factor (EGF). All cell lines were grown in a humidified atmosphere of 5% CO2 at 37 °C.
(§3) Cells were seeded in 100 μL complete medium in a 96-well plate, at a density of 10,000 cells/well for LNCaP and 5000 cells/well for other cells. Cells were pre-incubated for 24 h to allow for adherence before removal of complete medium and treatment with various concentrations of compounds in fetal bovine serum (FBS)-free medium for 48 h. After treatment, 20 μL/well MTT (5 mg/mL) was added and incubated for 3–4 h at 37 °C, and then 100 μL/well DMSO was added for MTT assay. The plate was shaken on an orbital shaker for 10 min. Absorbance was measured using a microplate reader at 492 nm for the MTT assay (performed in triplicates). Cell viability was normalized to control. Half inhibitory concentration (IC50) was calculated by SPSS Statistics 17.0. […] The experiments were independently repeated two to three times.

RWPE-1 cells = experiment: MTT cell proliferation assay, RWPE-1; assay type: cell-based; conditions: Homo sapiens, RWPE-1; MTT, 48 h treatment in FBS-free medium; read-out: IC50 Value (Mean ± SD mM) RWPE-1
Protocol: as §2, §3

[5] = system: A549, HepG2, and PANC-1 cells; experiment: MTT cell proliferation assay, other three cancer cell lines; assay type: cell-based; conditions: A549, HepG2, and PANC-1, text summary
Protocol: as §2, §3

HepG2 cells [6] = experiment: MTT cell proliferation assay, HepG2; assay type: cell-based; conditions: Homo sapiens, HepG2, 48 h treatment in FBS-free medium, read-out: IC50 Value (Mean ± SD mM) HepG2
Protocol: as §2, §3

NCCc1c[nH]c2ccccc12 [Tryptamine]
viability at 300 µM (PC-3 cells [1]; Homo sapiens, PC-3, 0.3 mM, read-out: percentage of viable cells): 75%
cell viability compared to the control group (PC-3 cells [1]; PC-3, 0.15 mM): no significant change in cell viability
migrated cells compared with the control (A549 cells; A549, 0.075 mM): no significant difference
percentage of migrated cells (A549 cells; A549, 0.15 mM): 80%
percentage of migrated cells (A549 cells; A549, 0.3 mM): 63%
migrated cells compared with the control (HepG2 cells [2]; HepG2, 0.075 mM): no significant difference
percentage of migrated cells (HepG2 cells [2]; HepG2, 0.15 mM): 77%
percentage of migrated cells (HepG2 cells [2]; HepG2, 0.3 mM): 55%
expression of cleaved caspase-3 [3]: increased expression of cleaved caspase-3
IC50 (PC-3 cells [4]): 0.24 ± 0.01 mM
IC50 (RWPE-1 cells): 0.71 ± 0.06 mM
IC50 [5]: 350 to 460 µM
IC50 (HepG2 cells [6]): 0.35 ± 0.02 mM

— PMC9569450, “Dual Effect of Tryptamine on Prostate Cancer Cell Growth Regulation: A Pilot Study” (International Journal of Molecular Sciences, 2022)
